Test results reported in US20150225762A1, “SAME-DAY BLOOD CULTURE WITH DIGITAL MICROSCOPY” (ACCELERATE DIAGNOSTICS, INC., priority 2012, published 2015).

How the values were obtained:
Paer 27853 [1] = assay: Plate count of live bacteria after killing treatment; format: cell-based, P. aeruginosa
Paer 27853 [2] = assay: FISH detection of live and killed bacteria with or without protease digestion; format: cell-based, P. aeruginosa
Kpne 13882 [3] = assay: Plate count of live bacteria after killing treatment
Ecol 35218 [4] = assay: as above; format: cell-based, E. coli
Ecol 35218 [5] = assay: FISH detection of live and killed bacteria with or without protease digestion; format: cell-based, E. coli
Kpne 13882 [6] = assay: as above; format: cell-based, K. pneumoniae
Saur 12600 [7] = assay: as above; format: cell-based, S. aureus
Saur 12600 [8] = assay: Plate count of live bacteria after killing treatment; format: cell-based, S. aureus
[9] = 0 hr, after gentamycin 100 micrograms per mL 1 hour or 80% ethanol
[10] = gentamycin 1 hour or 80% ethanol
[11] = 1 hour, with protease (0.2 mg/mL Pronase)
[12] = 1 hour, with protease (0.2 mg/mL Pronase), cells live or pre-killed as labelled
[13] = 4 hour, with protease (0.2 mg/mL Pronase)
[14] = 4 hour, with protease (0.2 mg/mL Pronase), cells live or pre-killed as labelled

**Q.** Which results are given for `CCO` [Ethanol, ethanol]?
**A.** Conc of live bacteria by plating (Paer 27853 [1]; [9]): <10 cfu/mL; Killing by plating, in words (Paer 27853 [1]; [10]): no viable cells; FISH Conc (Paer 27853 [2]; 1 hour, no protease): 3.0 × 10^5 cells/mL; Positive Detection? (Paer 27853 [2]; 1 hour, no protease): Yes (A detection threshold of 1×10^4 cells per mL was used as the threshold for a positive call in the FISH assay); Positive Detection? (Paer 27853 [2]; [11]): No (A detection threshold of 1×10^4 cells per mL was used as the threshold for a positive call in the FISH assay); FISH Conc (Paer 27853 [2]; [12]): 6.7 × 10^3 cells/mL; FISH Conc (Paer 27853 [2]; 4 hour, no protease): 1.3 × 10^5 cells/mL; Positive Detection? (Paer 27853 [2]; 4 hour, no protease): Yes (A detection threshold of 1×10^4 cells per mL was used as the threshold for a positive call in the FISH assay); Positive Detection? (Paer 27853 [2]; [13]): No (A detection threshold of 1×10^4 cells per mL was used as the threshold for a positive call in the FISH assay); FISH Conc (Paer 27853 [2]; [14]): <1 × 10^3 cells/mL; Conc of live bacteria by plating (Kpne 13882 [3]; [9]): <10 cfu/mL; Killing by plating, in words (Kpne 13882 [3]; [10]): no viable cells; Conc of live bacteria by plating (Ecol 35218 [4]; [9]): <10 cfu/mL; Killing by plating, in words (Ecol 35218 [4]; [10]): no viable cells; FISH Conc (Ecol 35218 [5]; 1 hour, no protease): 4.3 × 10^4 cells/mL; Positive Detection? (Ecol 35218 [5]; 1 hour, no protease): Yes (A detection threshold of 1×10^4 cells per mL was used as the threshold for a positive call in the FISH assay); Positive Detection? (Ecol 35218 [5]; [11]): No (A detection threshold of 1×10^4 cells per mL was used as the threshold for a positive call in the FISH assay); FISH Conc (Ecol 35218 [5]; [12]): 3.3 × 10^3 cells/mL; FISH Conc (Ecol 35218 [5]; 4 hour, no protease): 3.7 × 10^4 cells/mL; Positive Detection? (Ecol 35218 [5]; 4 hour, no protease): Yes (A detection threshold of 1×10^4 cells per mL was used as the threshold for a positive call in the FISH assay); Positive Detection? (Ecol 35218 [5]; [13]): No (A detection threshold of 1×10^4 cells per mL was used as the threshold for a positive call in the FISH assay); FISH Conc (Ecol 35218 [5]; [14]): 6.7 × 10^3 cells/mL; FISH Conc (Kpne 13882 [6]; 1 hour, no protease): 4.9 × 10^5 cells/mL; Positive Detection? (Kpne 13882 [6]; 1 hour, no protease): Yes (A detection threshold of 1×10^4 cells per mL was used as the threshold for a positive call in the FISH assay); Positive Detection? (Kpne 13882 [6]; [11]): Yes (A detection threshold of 1×10^4 cells per mL was used as the threshold for a positive call in the FISH assay); FISH Conc (Kpne 13882 [6]; [12]): 6.8 × 10^5 cells/mL; FISH Conc (Kpne 13882 [6]; 4 hour, no protease): 4.1 × 10^5 cells/mL; Positive Detection? (Kpne 13882 [6]; 4 hour, no protease): Yes (A detection threshold of 1×10^4 cells per mL was used as the threshold for a positive call in the FISH assay); Positive Detection? (Kpne 13882 [6]; [13]): Yes (A detection threshold of 1×10^4 cells per mL was used as the threshold for a positive call in the FISH assay); FISH Conc (Kpne 13882 [6]; [14]): 2.8 × 10^5 cells/mL; FISH Conc (Saur 12600 [7]; 1 hour, no protease): 3.4 × 10^5 cells/mL; Positive Detection? (Saur 12600 [7]; 1 hour, no protease): Yes (A detection threshold of 1×10^4 cells per mL was used as the threshold for a positive call in the FISH assay); Positive Detection? (Saur 12600 [7]; [11]): Yes (A detection threshold of 1×10^4 cells per mL was used as the threshold for a positive call in the FISH assay); FISH Conc (Saur 12600 [7]; [12]): 2.5 × 10^5 cells/mL; FISH Conc (Saur 12600 [7]; 4 hour, no protease): 1.9 × 10^5 cells/mL; Positive Detection? (Saur 12600 [7]; 4 hour, no protease): Yes (A detection threshold of 1×10^4 cells per mL was used as the threshold for a positive call in the FISH assay); Positive Detection? (Saur 12600 [7]; [13]): Yes (A detection threshold of 1×10^4 cells per mL was used as the threshold for a positive call in the FISH assay); FISH Conc (Saur 12600 [7]; [14]): 1.2 × 10^5 cells/mL; Conc of live bacteria by plating (Saur 12600 [8]; [9]): <10 cfu/mL; Killing by plating, in words (Saur 12600 [8]; [10]): no viable cells
